Experiments:
Bmi-1 = Bmi-1 Sandwich ELISA (endogenous Bmi-1 protein in HT-1080 cells); format: cell-based, human; settings: 40-48 hours compound treatment
Procedure: In another embodiment, the levels of endogenous Bmi-1 are determined by the Bmi-1 Sandwich ELISA. A Sandwich ELISA measures the amount of antigen, in this case Bmi-1, between two layers of antibodies (i.e. capture and detection antibody). The capture antibody is immobilized in the wells of an ELISA plate and when a cell lysate or other sample is added to the plate, the specific protein of interest (Bmi-1) is bound by this capture antibody. A second antibody, called the detecting antibody, is then added, which binds to the bound protein and helps increase the signal. […] Either monoclonal or polyclonal antibodies can be used as the capture and detection antibodies in Sandwich ELISA systems. Monoclonal antibodies recognize a single epitope that allows fine detection and quantification of […] differences in antigen. A polyclonal is often used as the capture antibody to pull down as much of the antigen as possible.
HT-1080 cells were seeded at 5000 cells/well (50 μL) in 96-well tissue culture plates. After the cells become adherent (3-4 hours), 2× diluted stocks of compounds in 50 μL DMEM containing 1% DMSO (final DMSO concentration was 0.5%) were added and the plates were incubated at 37° C. under 5% CO2 for 40-48 hours
The plate was covered with a plate seal and allowed to stand overnight.
1× Lysis Buffer (40 μL) was added to each well and the plate was shaken for 5-10 minutes on an orbital shaker to allow cell lysis, then Diluent (1% BSA in PBS in 0.5% NP40) (100 μL) was added to each well.
Aliquots can be kept at 4° C. and reused after first thaw, but only for 1-2 weeks. The Bmi-1 Recombinant Protein Standard contains a GST and thus will show up on western blots around 70 Kda.
The prepared ELISA plate was washed 3× with Wash Buffer (0.05% Tween-20 in PBS). The final wash was removed from the plate and the plate was blotted dry on paper towels. Blocking Buffer (300 μL) (1% BSA in PBS) was added per well. The plate was covered with a plate seal and incubated at room temperature for 1 hour. The blocked plate was washed 3× with Wash Buffer, the final wash was removed and the plate was blotted dry on paper towels. The previously prepared samples and standards were added (at 100 μL/well) and the plate was covered with a plate seal and incubated at 4° C. overnight.
The prepared ELISA plate was removed from 4° C., incubated at room temperature for 30 minutes, then washed and blotted dry as previously described for Day 3. […] The plate was covered with a plate seal and incubated for 1.5 hrs at room temperature.
The ELISA plate was washed and blotted dry as previously described.
The plate was incubated for 20-30 minutes at room temperature in the dark, then Stop Solution (2 M sulfuric acid in water) ([…]) was added per well. The plates were read at OD450 (experimental) and OD570 (reference).

[1] = tested on: firefly luciferase (fLuc) reporter gene flanked by the 5′-UTR and 3′-UTR of Bmi-1 mRNA; assay: Luciferase reporter gene assay in stable 293H cells; format: cell-based; settings: Homo sapiens, fLuc flanked by Bmi-1 5′-UTR and 3′-UTR
Excerpt: A high-level expression vector, pcDNA™3.1/Hygro (Invitrogen Corp., Carlsbad, Calif.) was used for preparing the constructs comprising the luciferase gene flanked by any of the Bmi-1 5′-UTR and 3′-UTR, or the Bmi-1 5′-UTR or the Bmi-1 3′-UTR of Bmi-1 mRNA. In a pcDNA™3.1/Hygro vector, the UTRs and restriction sites associated with cloning, expressing, or cloning and expressing a gene of interest or a reporter gene were removed or replaced. For each construct containing 5′-UTR sequences, the 5′-UTR sequences with the first 21 nucleotides of Bmi-1 ORF were cloned into the vector using the appropriate restriction sites so that the first 21 nucleotides were in frame with the luciferase reporter gene.
The cells were passaged every 4 days at 1:10 dilution. Cultures were kept in a 37° C. and 5% CO2 incubator. The cells were scaled-up over a three day period before performing the assay. Two confluent T175 flasks were split into twenty T175 flasks (1:10 dilution). Cells were harvested from each confluent flask by removing all of the media and adding 4 mL of warmed trypsin to dislodge the cells. After the cells were dislodged, 16 mL of selective media was added for a final volume of 20 mL. The cells were expanded by adding 2 mL of the harvested cells into ten new T175 flasks plus 25 mL of selective media. The twenty new flasks are placed into the 37° C., 5% CO2 incubator. On the day the assay was performed, the media was removed from the flasks and 3 mL of warmed trypsin was added to dislodge the cells. After the cells were dislodged, 10 mL of nonselective media was to the flask. This was repeated for all twenty flasks and combined into one flask. 100 μL of the above cell culture plus 100 μL of Trypan Blue stain was counted on a hemocytometer.
Luciferase activity was immediately assayed using a ViewLux Imaging system (Perkin Elmer).

[2] = CellTiter-Glo cytotoxicity assay, U937; format: cell-based; settings: human, U937 cells (monocyte cell line); U937, relatively sensitive cell line
Excerpt: To evaluate cytotoxicity of the compounds in the 293H cell lines, the CellTiter-Glo® assay (Promega) is utilized. CellTiter-Glo® determines the number of viable cells in culture based on quantification of the ATP present, which signals the presence of metabolically active cells. A reduction in cellular ATP is indicative of a cytotoxic or cytostatic effect. Doxorubicin, a known cytotoxic compound, is used to address the sensitivity of the tested cell line. For relatively sensitive cell lines, such as U937 (a human monocyte cell line), the CC50 of doxorubicin ranges from 4 to 10 nM.

[3] = CellTiter-Glo cytotoxicity assay, Huh7; format: cell-based; settings: human, Huh7 cells (hepatocellular carcinoma cell line); Huh7, intermediate level of sensitivity

`Cc1nc2ncccn2c1-c1csc(Nc2c(Br)cc(Br)cc2Br)n1` [Compound 5, 4-(2-methylimidazo[1,2-a]pyrimidin-3-yl)-N-(2,4,6-tribromophenyl)thiazol-2-amine] showed an EC50 (Bmi-1) of 710 nM and an EC50 [1] of 800 nM.

In the case of `Cc1cc(Br)c(Nc2nc(-c3c(C)nc4ncccn34)cs2)c(Br)c1` [Compound 4, N-(2,6-dibromo-4-methylphenyl)-4-(2-methylimidazo[1,2-a]pyrimidin-3-yl)thiazol-2-amine], the EC50 (Bmi-1) is reported as 320 nM and the EC50 [1] is reported as 540 nM.

Molecule `Cc1cc(Br)c(Nc2nc(-c3cnc4ccc(Cl)cn34)cs2)c(Br)c1` [Compound 8, 4-(6-chloroimidazo[1,2-a]pyridine-3-yl)-N-(2,6-dibromo-4-methylphenyl)thiazol-2-amine] has an EC50 (Bmi-1) of 390 nM and an EC50 [1] of 3800 nM.

In the case of `COc1cc(Br)c(Nc2nc(-c3c(C)nc4ncccn34)cs2)c(Br)c1` [Compound 1, N-(2,6-dibromo-4-methoxyphenyl)-4-(2-methylimidazo[1,2-a]pyrimidin-3-yl)thiazol-2-amine], the EC50 (Bmi-1) is reported as 410 nM and the EC50 [1] is reported as 530 nM.

`COc1cc(Cl)c(Nc2nc(-c3c(C)nc4ncccn34)cs2)c(Cl)c1` [Compound 2, N-(2,6-dichloro-4-methoxyphenyl)-4-(2-methylimidazo[1,2-a]pyrimidin-3-yl)thiazol-2-amine] showed an EC50 (Bmi-1) of 660 nM and an EC50 [1] of 910 nM.

With `COCCOc1cc(Br)c(Nc2nc(-c3c(C)nc4ncccn34)cs2)c(Br)c1` [Compound 6, N-(2,6-dibromo-4-(2-methoxyethoxy)phenyl)-4-(2-methylimidazo[1,2-a]pyrimidin-3-yl)thiazol-2-amine] the EC50 (Bmi-1) was 1700 nM and the EC50 [1] was 2600 nM.

`COc1cccc2c1C(=O)c1c(O)c3c(c(O)c1C2=O)C[C@@](O)(C(=O)CO)C[C@@H]3O[C@H]1C[C@H](N)[C@H](O)[C@H](C)O1` [doxorubicin, Doxorubicin] showed a CC50 [2] of 4 to 10 nM and a CC50 [3] of 70 to 300 nM.

Work on `COc1cc(F)c(Nc2nc(-c3c(C)nc4ncccn34)cs2)c(F)c1` [Compound 3, N-(2,6-difluoro-4-methoxyphenyl)-4-(2-methylimidazo[1,2-a]pyrimidin-3-yl)thiazol-2-amine] yielded an EC50 (Bmi-1) of over 3000 nM and an EC50 [1] of 17600 nM.

With `COc1cc(Br)c(Nc2nc(-c3cnc4ccc(Cl)cn34)cs2)c(Br)c1` [Compound 7, 4-(6-chloroimidazo[1,2-a]pyridine-3-yl)-N-(2,6-dibromo-4-methoxyphenyl)thiazol-2-amine] the EC50 (Bmi-1) was 360 nM and the EC50 [1] was 750 nM.

In the case of `COc1cc(Cl)c(Nc2nc(-c3cnc4ccc(Cl)cn34)cs2)c(Cl)c1` [Compound 9, 4-(6-chloroimidazo[1,2-a]pyridine-3-yl)-N-(2,6-dichloro-4-methoxyphenyl)thiazol-2-amine], the EC50 (Bmi-1) is reported as 1090 nM and the EC50 [1] is reported as 940 nM.
